Test results: article PMC9952466, “Characterization of Antioxidant and α-Glucosidase Inhibitory Compounds of Cratoxylum formosum ssp. pruniflorum and Optimization of Extraction Condition” (Antioxidants, 2023)

Test system: not listed separately
Test: antioxidant activity by DPPH radical scavenging
Conditions: DPPH radical scavenging
Protocol: (§1) The inhibitory effect on α-glucosidase was measured using α-glucosidase from Saccharomyces cerevisiae (EC 3.2.1.20). A test sample was mixed with 80 μL enzyme buffer and 10 μL α-glucosidase and incubated for 15 min at 37 °C. Then, after the addition of 10 μL p-nitrophenyl α-D-glucopyranoside solution for enzyme reaction, the amount of p-nitrophenol that was cleaved by the enzyme was determined by measuring the absorbance at 405 nm in a 96-well microplate reader. Acarbose was used as a positive control. The antioxidant activity was evaluated by measuring the DPPH radical scavenging activity using ascorbic acid as a positive control.

Compound | antioxidant activity (in words)
O=C(c1ccccc1)c1cc(O)c(O)c(OC2OC(CO)C(O)C(O)C2O)c1 (stereo not drawn) [Compound 19, pruniflonone B] | weak effect
CC(C)=CCc1c(O)c(O)c(C/C=C(\C)CCCC(C)(C)O)c2oc3ccc(O)cc3c(=O)c12 [Compound 16, pruniflonone A] | weak efficacy

Same assay, conditions: at 50 μM

Compound | DPPH radical scavenging activity
isocudraniaxanthone B [Compound 3] | more than 50%
COc1cc2c(=O)c3c(O)c(O)c(O)cc3oc2cc1O [Compound 17, caloxanthone E] | more than 50%
CC(C)=CCc1c(O)cc2oc3cc(O)c(O)c(CC=C(C)C)c3c(=O)c2c1O [Compound 6, γ-mangostin] | more than 50%
O=c1c2cc(O)c(O)cc2oc2cc(O)c([C@@H]3O[C@H](CO)[C@@H](O)[C@H](O)[C@H]3O)c(O)c12 [Compound 18, mangiferin] | more than 50%

Test system: α-glucosidase from Saccharomyces cerevisiae (EC 3.2.1.20)
Test: α-glucosidase inhibitory effect (p-nitrophenyl α-D-glucopyranoside, absorbance 405 nm)
Type: biochemical
Conditions: not given
Protocol: as §1

Compound | α-glucosidase inhibitory activity (in words)
O=C(c1ccccc1)c1cc(O)c(O)c(OC2OC(CO)C(O)C(O)C2O)c1 (stereo not drawn) [Compound 19, pruniflonone B] | weak effect
Oc1cc(O)c2c(c1)O[C@H](c1ccc(O)c(O)c1)[C@H](O)C2 [Compound 21, epicatechin] | good inhibition
CC(C)=CCc1c(O)c(O)cc2c(=O)c3c(O)cc(O)cc3oc12 [Compound 1, cochinchinone F] | reduced the efficacy
